This is an account of results in article PMC5062570 (Nature Communications, 2016).

Data set [1] can be described thus: Plasma exposure (average unbound plasma concentration) in rats. Type of data set: in vivo, rat. The conditions noted are these: for Exposure: rat exploratory toxicology studies; for Avg Cp,u metabolite: active metabolite of the dosed compound. Here is the method: Wistar Han rats (obtained from Charles River, 125–300 g, 6–9 weeks old at study start, see Supplementary Table 7 for number of males and females) received daily oral dosing of test compounds or vehicle at the indicated concentrations for 7–29 days as indicated. The doses were prepared in a solution of 0.5% methylcellulose and 0.2% polysorbate 80, or 0.5% methylcellulose and hydroxypropyl methylcellulose acetate succinate (high fine grade) and delivered in a volume of 10 ml kg^−1 per day. Blood samples for bioanalytical analysis were collected in K2EDTA tubes via jugular vessel. Plasma was isolated after centrifugation and stored at −20 °C prior to analysis. Animals were given an additional dose the day after the end of the study (days 8, 15 or 30 for 7, 14 and 29 day studies, respectively) then killed by gas anaesthesia (isoflurane) followed by exsanguination ∼3 h after this final dose.
Plasma samples were analysed after protein precipitation by treating 20 μl of sample matrix with 200 μl of acetonitrile containing internal standard. All samples were centrifuged at 3,000 r.p.m. for 5 min. Then 100 μl of supernatant was transferred to a clean plate and evaporated to dryness under N2. Samples were reconstituted in 200 μl of 80:20 (v:v) acetonitrile:water. Samples were analysed on Waters Acquity UPLC connected to AB Sciex API5500 QTrap MS/MS.
Plasma protein binding was determined in the Rapid Equilibrium Device (RED, Thermo Scientific). Frozen plasma was warmed to 37 °C and adjusted to pH 7.4. The plasma was spiked with compound to a final concentration of 2 μM. Aliquots of spiked plasma were added to the donor (red) side, followed by addition of buffer to the receiver (white) side. The RED device was covered with a gas-permeable membrane and agitated within a humidified CO2 incubator (5% CO2, 75% relative humidity). Plasma (15 μl) and buffer (45 μl) were sampled from each insert and were matrix-matched with appropriate blank matrix (plasma with 45 μl buffer and buffer with 15 μl of plasma). Samples were protein-precipitated with acetonitrile containing internal standard, and the resulting supernatant was analysed by LC-MS/MS.

Data set [2] is described as follows: pKa determination by multiplexed capillary electrophoresis. Type of data set: physicochemical. Conditions: aqueous buffers. Here is the method: All pKa values were determined at Analiza, Inc. by multiplexed capillary electrophoresis (mCE) using 96-capillary array electrophoresis instrument to measure the effective mobility (migration time of the compound in relation to neutral marker, DMSO) with ultraviolet detection. The pKa values were obtained from the ionization curves by plotting the compound effective mobility (24 points across pH range 1.7–11.2) versus pH. All pKa results were determined using aqueous buffers with method average absolute error 0.12.

Data set [3] deals with T1, CatD (Homo sapiens, UniProt P07339). Briefly: CatD cellular assay (competition of PF-7802 photolabelling in live ARPE-19 cells). Type of data set: cell-based. Details: host or cells: ARPE-19. The conditions noted are these: for CatD potency increase in live cells: CatD enzyme IC50 versus CatD cellular IC50; for IC50: live ARPE-19 cells, PF-7802 photoprobe 100 nM, 30 min. Here is the method:
ARPE-19 cells were plated at a density of 1.2 × 10^6 cells per well in six-well dishes 12–24 h before probe labelling. Culture media was removed completely and replaced with 1 ml of the appropriate serum-free media (no supplements) per well. Cells were then pretreated with test compounds at the indicated concentrations for 30 min (0.5% DMSO, 37 °C, 5% CO2). […] Ultraviolet irradiation was performed without culture plate lids for efficient irradiation, and samples were slowly rotated to prevent evaporation. After ultraviolet irradiation, cells were washed twice with Dulbecco's phosphate-buffered saline (DPBS), scraped into DPBS, centrifuged and stored as pellets at −80 °C.
Cells were lysed with sonication on ice in 70 μl DPBS and protein concentrations were determined using a BCA assay (Pierce). Total protein concentrations were then normalized to 1 mg ml^−1 in 50 μl total volume before addition of 5.5 μl click chemistry mix (1 : 3 : 1 : 0.5 volume of 50 mM CuSO4 (Sigma) in H2O : 1.7 mM TBTA (Sigma) in 4:1 t-BuOH:DMSO : 50 mM TCEP (Hampton Research) in dPBS : 10 mM TAMRA-azide (Lumiprobe) in DMSO - mixed immediately before use. Reagent solutions can be premade and stored at 4 °C except for TCEP, which should be made immediately before use). […] All fluorescence gels are presented in greyscale.
Target sequence in this assay (P07339 169-412 limits assumed): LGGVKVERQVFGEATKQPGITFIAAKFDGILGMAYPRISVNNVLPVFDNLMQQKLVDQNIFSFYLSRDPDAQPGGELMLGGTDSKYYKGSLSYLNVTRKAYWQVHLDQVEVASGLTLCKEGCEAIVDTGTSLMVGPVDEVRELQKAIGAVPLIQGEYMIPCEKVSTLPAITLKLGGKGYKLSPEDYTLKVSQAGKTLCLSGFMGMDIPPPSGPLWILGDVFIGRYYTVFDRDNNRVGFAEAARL
Target sequence in this assay (P07339 65-162 limits assumed): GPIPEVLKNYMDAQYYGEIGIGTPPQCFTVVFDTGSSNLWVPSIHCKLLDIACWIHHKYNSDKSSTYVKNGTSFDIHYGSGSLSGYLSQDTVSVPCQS

Data set [4] addresses T2, BACE1 (Homo sapiens, UniProt P56817). Briefly: BACE1 purified enzyme fluorescence polarization assay. The conditions noted are these: purified human enzyme, fluorescence polarization, peptide substrate. Details: His (C); made in house; host or cells: CHO-K1. Type of data set: biochemical. A general note: In fluorescence polarisation assays a small probe gives low polarisation when free and higher when bound to something large.
Target sequence in this assay (P56817 46-457): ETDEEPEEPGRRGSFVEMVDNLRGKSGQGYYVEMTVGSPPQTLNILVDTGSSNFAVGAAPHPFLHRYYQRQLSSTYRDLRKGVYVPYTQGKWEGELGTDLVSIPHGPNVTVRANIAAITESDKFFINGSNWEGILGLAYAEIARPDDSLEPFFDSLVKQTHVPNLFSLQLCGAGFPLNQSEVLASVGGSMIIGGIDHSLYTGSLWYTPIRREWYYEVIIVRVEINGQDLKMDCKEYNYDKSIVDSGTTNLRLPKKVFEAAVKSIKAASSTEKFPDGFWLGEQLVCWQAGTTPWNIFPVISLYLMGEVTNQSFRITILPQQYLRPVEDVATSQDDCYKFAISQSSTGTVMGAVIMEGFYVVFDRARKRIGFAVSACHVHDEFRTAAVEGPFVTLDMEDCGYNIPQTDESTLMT

For data set [5], the target named is T1, CatD. Briefly: CatD purified enzyme fluorescence polarization assay. Type of data set: biochemical. Details: final maturation into a non-covalently associated heavy chain and light chain; purchased Sigma C8696; host or cells: human liver. The conditions noted are these: purified human enzyme, fluorescence polarization, substrate-based.
Target sequence in this assay (P07339 65-162 limits assumed): as the sequence (P07339 65-162 limits assumed) above
Target sequence in this assay (P07339 169-412 limits assumed): as the sequence (P07339 169-412 limits assumed) above
Data set [6] has as its target T2, BACE1. Briefly: BACE1 biochemical cellular assay (sAPPβ ELISA in H4 cells overexpressing APP695). The conditions noted are these: for BACE1 potency increase in live cells: BACE1 enzyme IC50 versus BACE1 cellular IC50; for IC50: sAPPβ ELISA, H4 neuroglioma cells with human wild-type APP. Details: endogenous in cells; host or cells: H4 human neuroglioma cells overexpressing human APP695. Type of data set: cell-based. Here is the method: Cellular inhibition of BACE1 was determined by measuring sAPPβ, the primary cleavage product of BACE-1, in H4 human neuroglioma cells overexpressing the wild-type human APP695. […] The colorimetric reaction was read by an EnVision plate reader (PerkinElmer).
Target sequence in this assay (P56817 46-501): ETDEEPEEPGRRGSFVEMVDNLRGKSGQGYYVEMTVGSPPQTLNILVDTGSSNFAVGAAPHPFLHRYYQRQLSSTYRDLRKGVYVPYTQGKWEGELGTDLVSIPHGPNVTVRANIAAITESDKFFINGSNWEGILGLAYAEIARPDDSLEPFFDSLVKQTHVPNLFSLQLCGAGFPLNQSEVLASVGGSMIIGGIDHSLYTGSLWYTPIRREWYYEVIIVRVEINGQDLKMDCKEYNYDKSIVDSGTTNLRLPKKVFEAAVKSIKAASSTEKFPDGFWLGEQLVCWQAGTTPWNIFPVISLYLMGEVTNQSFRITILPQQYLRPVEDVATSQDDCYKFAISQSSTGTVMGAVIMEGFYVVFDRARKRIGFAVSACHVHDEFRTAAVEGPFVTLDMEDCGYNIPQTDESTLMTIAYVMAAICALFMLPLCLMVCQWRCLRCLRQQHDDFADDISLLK
Background: An ELISA detects its analyte on a solid surface through an enzyme-linked reagent.

Values joined by “and” are separate entries in the source; they are usually repeats but may differ in a detail not shown here. Equal values may be shown once. Read-outs that look alike come from different tables or passages of the source.

The pKa is the pH at which an ionisable group is half protonated. A high value points to a weaker acid or stronger base. By IC50 is commonly meant the concentration that gives 50% inhibition. Lower therefore signals greater potency in that assay.

With `Cc1cc([C@H]2C[C@H]3[C@@H](CF)SC(N)=N[C@@]3(c3ccc(F)cc3F)CO2)on1` [PF-3195], in data set [1], the “Exposure” value is “unexpectedly low exposures”. The “Avg Cp,u metabolite” value is 0.46 µM in data set [1] (rat, 14 days, 15 mg kg-1 once daily); 2.57 µM in data set [1] (rat, 14 days, 40 mg kg-1 once daily); 6.35 µM in data set [1] (rat, 14 days, 90 mg kg-1 once daily); 17.3 µM in data set [1] (rat, 14 days, 200 mg kg-1 once daily). The concentration at 29 days in data set [1] (rat, 14 days, 15 mg kg-1 once daily, average unbound plasma concentration, read-out: Avg Cp,u parent) worked out at 5.4 nM; in data set [1] (rat, 14 days, 40 mg kg-1 once daily, average unbound plasma concentration, read-out: Avg Cp,u parent) it was 58 nM; in data set [1] (rat, 14 days, 90 mg kg-1 once daily, average unbound plasma concentration, read-out: Avg Cp,u parent), 232 nM; in data set [1] (rat, 14 days, 200 mg kg-1 once daily, average unbound plasma concentration, read-out: Avg Cp,u parent), 1790 nM. Besides, the pKa in data set [2] was 7.0. The “CatD potency increase in live cells” value at CatD [3] is listed as 17 x. The IC50 on CatD [3] was 540 nM; at BACE1 [4] it was 62 nM; against CatD [5], 9 µM; against BACE1 [6], 15 nM. Further, the “BACE1 potency increase in live cells” value on BACE1 [6] was 4.1 x.

With `Cc1cc([C@H]2C[C@H]3[C@@H](C)SC(N)=N[C@@]3(c3ccc(F)cc3F)CO2)on1` [PF-9283], the concentration at 14 days in data set [1] (Wistar Han, oral, rat, 14 days, 30 mg kg-1 once daily, average unbound plasma concentration, read-out: Avg Cp,u parent) was determined as 29 nM. Also, in data set [1], the “Exposure” value was “unexpectedly low exposures”. The compound further gave a pKa in data set [2] of 7.7. On CatD [3], the “CatD potency difference between cell-free enzyme and cellular assays” value is roughly 86 fold; the “CatD potency increase in live cells” value was 86 x; the IC50 is 140 nM and < 300 nM. Also, the “BACE1 selectivity over CatD in cells” value at CatD [3] (cellular inhibition of BACE1 cleavage of APP versus inhibition of CatD labelling by PF-7802) worked out at 23 fold. The compound also returned an IC50 on BACE1 [4] of 74 nM. For the same compound, the IC50 against CatD [5] came out at 12 µM. In addition, at BACE1 [6], the “BACE1 potency increase in live cells” value came out at 12 x and the IC50 was found to be 6 nM.
